{"source": "patent US10307410B2", "about": "“Mcl-1 modulating compounds for cancer treatment” (CENTRE REGIONAL DE LUTTE CONTRE LE CANCER FRANCOIS BACLESSE, priority 2014, dated 2019)", "key": {"Noxa/Mcl-1 interaction": {"biological_target": "T1, Noxa/Mcl-1 interaction (Homo sapiens, UniProt Q07820)", "T1 construct": "expressed in transfected cells; host or cells: HeLa cells", "T1 sequence (Q07820 whole entry)": "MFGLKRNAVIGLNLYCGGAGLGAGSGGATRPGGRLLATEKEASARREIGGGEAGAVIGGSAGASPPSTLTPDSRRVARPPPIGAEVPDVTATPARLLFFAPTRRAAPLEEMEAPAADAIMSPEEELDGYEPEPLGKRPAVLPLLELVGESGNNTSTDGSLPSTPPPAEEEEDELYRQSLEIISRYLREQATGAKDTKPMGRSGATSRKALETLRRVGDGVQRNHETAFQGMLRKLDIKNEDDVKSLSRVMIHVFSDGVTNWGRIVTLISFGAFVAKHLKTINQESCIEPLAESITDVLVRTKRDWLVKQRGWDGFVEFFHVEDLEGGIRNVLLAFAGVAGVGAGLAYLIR", "experiment": "BRET assay, Noxa/Mcl-1 interaction", "type": "cell-based", "settings": "BRET in Hela cells, 10 μM, 16 hours", "protocol": "Hela cells were seeded on 6-well plates and transfected with 200 ng/well of plasmid pRLuc-Bax, pRLuc-Puma or pRLuc-Noxa coding for BRET donors and 1 µg/well of peYFP-Bcl-xL or peYFP-Mcl-1 coding for BRET acceptors (or with pCMV-Bcl-xL or pCMV-Mcl-1 for control). Twenty-four hours after transfection, cells were trypsinized and re-seeded into white 96 well plate flat bottom, incubated for another day, and then treated with drugs for 16 hours at 10 μM. Light emission at 485 nm and 530 nm was measured consecutively using the Mithras fluorescence-luminescence detector LB 940 (Berthold) after adding the luciferase substrate, coelenterazine H (Uptima) at a final concentration of 5 μM. BRET ratios were calculated as described [Terrillon et al. (2003) Mol Endocrinol 17, 677-691, Vo et al. (2012) Eur J Med Chem., 286-93]."}, "[1]": {"tested_on": "IGROV1-R10 ovarian cancer cells", "experiment": "PARP and caspase 3 cleavage by western blot", "type": "cell-based", "parameters": "key to PARP cleavage: +: a little band corresponding to the 85 kDa cleaved form of PARP is observable on the western blot; ++: a band corresponding to the 85 kDa cleaved form of PARP is clearly observable on the western blot; +++: PARP in nearly completely cleaved", "protocol": "(§1) Exponentially growing cells were transfected by siRNA as described below, and after 48 h, cells were continuously exposed to (Het)aromatic oligosystems (10, 25 or 50 μM) dissolved in DMSO (<0.1% of total volume) for 4 to 24 supplementary hours.\n(§2) Cells were seeded in 25 cm^2 flasks the day before to reach 30-50% confluency at the time of transfection. The transfection INTERFERin™ reagent (Polyplus Transfection, Strasbourg. France) was added to siRNA diluted in Opti-MEM® reduced serum medium (Invitrogen, Cergy-Pontoise, France) and complexes formation was allowed to proceed for 15 min at RT before being applied to cells. The final siRNA concentration in the flasks was 20 nM.\nCells were rinsed with ice-cold PBS, suspended in a lysis buffer [RIPA:NaCl 150 mM, Tris (pH 8) 50 mM, Triton X100 1%, PMSF 4 mM, EDTA 5 mM, NaF 10 mM, NaPPi 10 mM, Na3OV4 1 mM, aprotinin 0.5 μl/ml and 4.6 ml ultra pure water] and incubated on ice for 30 minutes. Lysates were collected after centrifugation (13200 g, 10 min, 4° C.) and protein concentrations were determined using the Bradford assay (Bio-Rad, Hercules, USA). 20 μg of protein were separated by SDS-PAGE on a 4-12% gradient polyacrylamide gel (Invitrogen, Cergy-Pontoise, France) and transferred to Hybond-PVDF membranes (Amersham, Orsay, France). After blocking non-specific binding sites for 1 hour at RT by 5% (w/v) non-fat dry milk in TBS with 0.1% (v/v) Tween20 (T-TBS), the membranes were incubated overnight at 4° C. with the following rabbit monoclonal antibody: PARP, caspase-3 and Bcl-xL, Bim (Cell Signaling Technology, Ozyme, Saint-Quentin-en-Yvelines, France), Mcl-1 (Santa Cruz, Le Perray-en-Yvelines, France), HSP-70, Noxa (Calbiochem, Fontenay-sous-Bois, France), (Cell Signalling) and Actin (Sigma-Aldrich, Saint-Quentin Fallavier, France). Membranes were then washed with T-TBS and incubated for 1 hour with the appropriate horseradish peroxidase-conjugated anti-rabbit or anti-mouse (Amersham, Orsay, France) secondary antibodies. Revelation was done using a luminescent Image Analyzer (GE Healthcare, Orsay, France)."}, "[2]": {"tested_on": "IGROV1-R10 ovarian cancer cells", "experiment": "Nuclear morphology after DAPI staining", "type": "cell-based", "parameters": "key to Apoptotic nuclear features: +: a few condensed or fragmented nuclei are observable after DAPI staining; ++: numerous condensed or fragmented nuclei are observable after DAPI staining (20-50%); +++: most of the nuclei are condensed or fragmented", "protocol": "as §1, §2\nAfter treatment, both detached and adherent cells were pooled after trypsinization, applied to a polylysine-coated glass slide by cytocentrifugation and fixed with a solution of ethanol/chloroform/acetic acid (6:3:1). The preparations were then incubated for 15 min at room temperature with 1 μg/ml DAPI solution (Boehringer Mannheim-Roche, Mannheim, Germany), washed in distillated water, mounted under a coverslip in Mowiol (Calbiochem) and analyzed under a fluorescence microscope (BX51, Olympus, Rungis, France).\nCells were fixed with 2.5% glutaraldehyde in PBS buffer, included in agar, rinsed in Sorensen's buffer, post-fixed in osmium tetroxide 1% in Sorensen's buffer, deshydrated in ethanol and embedded in EPON resin. Ultrathin sections were cut and stained with uranyl acetate and lead citrate and examined using a JEOL1011 transmission electron microscope."}, "[3]": {"tested_on": "IGROV1-R10 ovarian cancer cells", "experiment": "Annexin V/propidium iodide flow cytometry", "type": "cell-based", "settings": "IGROV1-R10, 10 nM siXL1 48 h then 25 μM Pyridoclax 24 h", "protocol": "(§3) Adherent and floating cells were pooled, washed with 1×PBS and centrifuged at 200 g for 5 min before staining by Annexin V, propidium iodide or both, as recommended by the manufacturer (Roche Diagnostic, Indianapolis, USA). Briefly, 100 μl of Annexin V—Flit or propidium iodide or both were added on the cells pellet (10^6 cells) and incubated 15 minutes at room temperature in obscurity. 500 μl of sample buffer was then added on the suspensions that were thereafter analyzed using a Gallios flow cytometer (Beckman Coulter, Roissy, France) and cell cycle distribution was determined using Kaluza acquisition software (Beckman Coulter)."}, "[4]": {"tested_on": "IGROV1-R10 ovarian cancer cells", "experiment": "Trypan blue exclusion assay", "type": "cell-based", "settings": "IGROV1-R10, Pyridoclax associated to siXL1"}, "[5]": {"tested_on": "SKOV3 chemoresistant ovarian cancer cells", "experiment": "Pyridoclax / ABT-737 association, apoptotic cell death", "type": "cell-based, human", "protocol": "FIG. 4 represents the effect of the association of Pyridoclax with ABT-737 on chemoresistant ovarian cancer cells IGROV1-R10 (top) and SKOV3 (bottom). Cells were concomitantly (A, E) or sequentially (B) exposed to 25 μM Pyridoclax and 5 μM ABT-737, and cellular effects were assessed either longitudinally (A, B, E) or after 24 h (C, D, F). [A, B, E] real time cellular activity assessed by impedancmetry (xCELLigence technology), after concomitant exposure (A, E) or sequential exposure (B; 24 h Pyridoclax, then ABT-737). [C]: Cellular morphology and DNA content histograms after a 24 h concomitant exposure. [D and F]: PARP and caspase 3 cleavage after a 24 h concomitant exposure.\nas §3\nCells were rinsed with ice-cold PBS, suspended in a lysis buffer [RIPA:NaCl 150 mM, Tris (pH 8) 50 mM, Triton X100 1%, PMSF 4 mM, EDTA 5 mM, NaF 10 mM, NaPPi 10 mM, Na3OV4 1 mM, aprotinin 0.5 μl/ml and 4.6 ml ultra pure water] and incubated on ice for 30 minutes. Lysates were collected after centrifugation (13200 g, 10 min, 4° C.) and protein concentrations were determined using the Bradford assay (Bio-Rad, Hercules, USA). 20 μg of protein were separated by SDS-PAGE on a 4-12% gradient polyacrylamide gel (Invitrogen, Cergy-Pontoise, France) and transferred to Hybond-PVDF membranes (Amersham, Orsay, France). […]"}, "[6]": {"settings": "IGROV1-R10, Pyridoclax associated to siXL1"}}}
{"smiles": "Cc1cc(-c2ncc(-c3cccnc3)cc2/C=C/c2ccccc2)cnc1-c1cccnc1", "note": "[Pyridoclax, 5,6′-di(pyridin-3-yl)-5′-methyl-3-((E)-styryl)-2,3′-bipyridine]", "values": [{"measurement": "effect on Noxa/Mcl-1 interaction", "setting": "Noxa/Mcl-1 interaction", "value": "able to disrupt"}, {"measurement": "cleavage of PARP and caspase 3", "setting": "[1]; [6]", "value": "complete cleavage of PARP and caspase 3"}, {"measurement": "PARP cleavage", "setting": "[1]; Molecule + Bcl-xL targeting siRNA", "value": "+++"}, {"measurement": "nuclear morphology (DAPI staining and electron microscopy)", "setting": "[2]; [6]", "value": "nuclear condensations and fragmentations"}, {"measurement": "Apoptotic nuclear features", "setting": "[2]; Molecule + Bcl-xL targeting siRNA, DAPI staining", "value": "+++"}, {"measurement": "fraction of annexin V positive cells", "setting": "[3]", "value": 60, "unit": "%"}, {"measurement": "number of viable cells", "setting": "[4]", "value": "drastic decrease of the number of viable cells"}, {"measurement": "cell death, combination with ABT-737", "setting": "[5]; SKOV3, 25 μM Pyridoclax + 5 μM ABT-737", "value": "massive apoptotic cell death"}, {"measurement": "cell death as single agent", "setting": "[5]; SKOV3, single agent", "value": "neither ABT-737 nor Pyridoclax induced cell death as single agents"}]}
